Measured values published in PMC2358886, “Evolution of pharmacologic specificity in the pregnane X receptor” (BMC Evolutionary Biology, 2008).
Read-outs that look alike come from different tables or passages of the source.

What was measured:
zebrafish PXR [1] = target: T1, zebrafish PXR (Danio rerio, UniProt A5WYG8)
T1 sequence (A5WYG8 144-430): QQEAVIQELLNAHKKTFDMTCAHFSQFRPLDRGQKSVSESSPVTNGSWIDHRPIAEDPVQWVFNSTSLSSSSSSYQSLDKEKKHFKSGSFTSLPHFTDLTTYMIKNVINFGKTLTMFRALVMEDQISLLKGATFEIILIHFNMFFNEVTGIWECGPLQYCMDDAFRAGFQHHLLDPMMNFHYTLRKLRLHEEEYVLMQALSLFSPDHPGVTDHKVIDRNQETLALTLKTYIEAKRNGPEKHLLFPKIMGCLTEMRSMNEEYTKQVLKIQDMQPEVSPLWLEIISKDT

human PXR [2] = target: T2, human PXR (Homo sapiens, UniProt O75469); experiment: PXR activation luciferase reporter assay, human PXR in HepG2-NTCP cells
T2 sequence (O75469 1-434): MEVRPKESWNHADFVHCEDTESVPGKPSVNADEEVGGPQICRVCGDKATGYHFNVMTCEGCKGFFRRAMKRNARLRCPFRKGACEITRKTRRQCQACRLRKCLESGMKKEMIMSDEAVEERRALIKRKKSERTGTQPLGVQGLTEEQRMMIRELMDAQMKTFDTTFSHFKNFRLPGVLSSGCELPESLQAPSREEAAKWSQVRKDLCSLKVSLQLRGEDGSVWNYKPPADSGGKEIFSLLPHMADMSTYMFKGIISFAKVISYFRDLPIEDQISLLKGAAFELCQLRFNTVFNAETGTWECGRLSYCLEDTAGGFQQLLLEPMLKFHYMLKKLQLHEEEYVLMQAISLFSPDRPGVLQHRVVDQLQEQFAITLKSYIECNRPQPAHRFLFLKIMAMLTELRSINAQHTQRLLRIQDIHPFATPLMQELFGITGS

chicken PXR [3] = target: T3, chicken PXR (Gallus gallus, UniProt Q9DFH3); experiment: cell-based
T3 sequence (Q9DFH3 1-391): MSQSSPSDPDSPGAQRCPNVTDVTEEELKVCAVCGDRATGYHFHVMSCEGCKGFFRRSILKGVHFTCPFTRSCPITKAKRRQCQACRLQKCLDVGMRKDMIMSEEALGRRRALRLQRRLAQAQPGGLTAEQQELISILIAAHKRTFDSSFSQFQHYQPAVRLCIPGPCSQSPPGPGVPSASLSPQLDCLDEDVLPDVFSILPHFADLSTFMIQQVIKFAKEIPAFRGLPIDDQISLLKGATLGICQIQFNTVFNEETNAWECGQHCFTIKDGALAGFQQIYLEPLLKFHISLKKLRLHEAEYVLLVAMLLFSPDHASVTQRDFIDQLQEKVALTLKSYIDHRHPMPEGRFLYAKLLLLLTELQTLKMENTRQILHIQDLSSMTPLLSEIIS

zebrafish PXR [4] = target: T1, zebrafish PXR; experiment: cell-based
chicken PXR [5] = target: T3, chicken PXR
human PXR [6] = target: T2, human PXR; details: human
rabbit PXR = target: T4, rabbit PXR (Oryctolagus cuniculus, UniProt Q9TU02); experiment: PXR activation luciferase reporter assay, rabbit PXR; details: for Rabbit PXR efficacy, ε: relative to 50 μM 5α-pregnan-3,20-dione, assigned an efficacy of 1.0
T4 sequence (Q9TU02 1-411): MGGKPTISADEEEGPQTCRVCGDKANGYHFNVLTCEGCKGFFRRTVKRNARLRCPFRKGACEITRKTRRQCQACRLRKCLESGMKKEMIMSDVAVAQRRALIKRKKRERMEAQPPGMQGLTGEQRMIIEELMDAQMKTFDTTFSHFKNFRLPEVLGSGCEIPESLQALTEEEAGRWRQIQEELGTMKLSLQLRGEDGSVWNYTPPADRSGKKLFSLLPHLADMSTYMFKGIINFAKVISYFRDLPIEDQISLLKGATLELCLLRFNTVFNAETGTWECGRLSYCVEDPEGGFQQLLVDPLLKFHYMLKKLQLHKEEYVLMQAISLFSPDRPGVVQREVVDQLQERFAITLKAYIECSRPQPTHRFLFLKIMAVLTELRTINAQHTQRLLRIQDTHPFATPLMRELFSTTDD

rat PXR [7] = target: T5, rat PXR (Rattus norvegicus, UniProt Q9R1A7); details: relative to 20 μM pregnenolone 16α-carbonitrile, assigned an efficacy of 1.0
T5 sequence (Q9R1A7 1-431): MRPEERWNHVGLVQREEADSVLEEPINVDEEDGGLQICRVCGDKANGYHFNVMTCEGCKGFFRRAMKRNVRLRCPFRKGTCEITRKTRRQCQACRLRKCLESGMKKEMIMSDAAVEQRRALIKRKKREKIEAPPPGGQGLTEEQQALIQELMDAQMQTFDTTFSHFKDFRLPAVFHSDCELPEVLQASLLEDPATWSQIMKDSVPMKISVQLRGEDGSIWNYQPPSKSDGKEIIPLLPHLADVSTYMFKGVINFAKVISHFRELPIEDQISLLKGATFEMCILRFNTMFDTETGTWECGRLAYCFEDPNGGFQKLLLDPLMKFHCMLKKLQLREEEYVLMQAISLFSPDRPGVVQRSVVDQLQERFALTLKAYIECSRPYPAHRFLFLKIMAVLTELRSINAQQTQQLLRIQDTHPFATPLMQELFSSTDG

rat PXR [8] = target: T5, rat PXR; experiment: cell-based
mouse PXR = target: T6, mouse PXR (Mus musculus, UniProt O54915); details: -log(EC50), EC50 in molar units
T6 sequence (O54915 1-431): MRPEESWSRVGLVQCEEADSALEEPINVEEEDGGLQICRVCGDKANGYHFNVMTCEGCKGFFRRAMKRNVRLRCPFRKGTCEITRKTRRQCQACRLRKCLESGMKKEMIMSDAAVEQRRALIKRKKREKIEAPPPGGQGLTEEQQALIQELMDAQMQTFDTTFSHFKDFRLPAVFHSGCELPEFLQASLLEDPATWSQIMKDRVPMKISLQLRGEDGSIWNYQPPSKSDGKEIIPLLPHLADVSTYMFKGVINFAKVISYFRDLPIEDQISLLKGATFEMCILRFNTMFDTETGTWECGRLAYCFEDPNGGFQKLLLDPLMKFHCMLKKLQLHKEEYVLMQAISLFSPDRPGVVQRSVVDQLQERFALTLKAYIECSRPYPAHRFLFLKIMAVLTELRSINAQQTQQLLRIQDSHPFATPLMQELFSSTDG

[9] = relative to 20 μM 5α-androstan-3α-ol, assigned an efficacy of 1.0
[10] = hPXR Activity, -log(EC50), EC50 in molar units, activation of human PXR

C[C@]12CC[C@@H](O)C[C@@H]1CC[C@@H]1[C@@H]2CC[C@]2(C)[C@@H](O)CC[C@@H]12 [AN1, 5α-Androstan-3α,17β-diol]
zfPXR Efficacy (zebrafish PXR [1]; [9]): 0.84 | EC50 (human PXR [2]; [10]): 4.17 µM | Toxicity (HepG2 cells): None | EC50 (chicken PXR [3]): 8.51 µM | EC50 (zebrafish PXR [4]; zfPXR Activity, -log(EC50), EC50 in molar units, activation of zebrafish PXR): 6.46 µM | Chicken PXR efficacy, ε (chicken PXR [5]; relative to 20 μM nifedipine, assigned an efficacy of 1.0): 2.28 | hPXR Efficacy (human PXR [6]): 0.68

C[C@@]12CCC[C@H]1[C@@H]1CC[C@H]3C[C@H](O)CC[C@]3(C)[C@H]1CC2 [AN3, 5α-Androstan-3α-ol]
zfPXR Efficacy (zebrafish PXR [1]; [9]): 1.00 | EC50 (human PXR [2]; [10]): 6.31 µM | Toxicity (HepG2 cells): None | EC50 (chicken PXR [3]): 4.17 µM | EC50 (zebrafish PXR [4]): 4.57 µM | Chicken PXR efficacy, ε (chicken PXR [5]; chicken): 0.85 | hPXR Efficacy (human PXR [6]): 0.5

C[C@]12CC[C@H](O)C[C@@H]1CC[C@@H]1[C@@H]2CC[C@]2(C)C=CC[C@@H]12 [AN21, 5α-Androst-16-en-3β-ol]
zfPXR Efficacy (zebrafish PXR [1]; zebrafish): 2.11 | EC50 (human PXR [2]): 4.79 µM | Toxicity (HepG2 cells; human, 24 hr): 50 µM | EC50 (chicken PXR [3]): 7.24 µM | EC50 (zebrafish PXR [4]): 3.31 µM | Chicken PXR efficacy, ε (chicken PXR [5]; chicken): 2.99

C[C@]12CCC(=O)C[C@@H]1CC[C@@H]1[C@@H]2CC[C@]2(C)C=CC[C@@H]12 [AN22, 5α-Androst-16-en-3-one]
zfPXR Efficacy (zebrafish PXR [1]; zebrafish): 0.68 | EC50 (human PXR [2]): 3.02 µM | Toxicity (HepG2 cells; human, 24 hr): 100 µM | EC50 (chicken PXR [3]): 10.2 µM | EC50 (zebrafish PXR [4]): 2.63 µM | Chicken PXR efficacy, ε (chicken PXR [5]; chicken): 0.77

CC(CCC(=O)NCC(=O)O)C1CCC2C3C(O)CC4CC(O)CCC4(C)C3CCC12C (stereo not drawn) [BI006, Glycochenodeoxycholic acid]
EC50 (chicken PXR [3]): 25.1 µM | Chicken PXR efficacy, ε (chicken PXR [5]; chicken): 0.41

C[C@H](CCC(=O)O)[C@H]1CC[C@H]2[C@@H]3CC[C@@H]4C[C@H](O)CC[C@]4(C)[C@H]3C[C@H](O)[C@]12C [BI008, Deoxycholic acid]
EC50 (rabbit PXR): 36.3 µM | Rabbit PXR efficacy, ε (rabbit PXR): 0.37 | Rat PXR efficacy, ε (rat PXR [7]): 0.32 | EC50 (rat PXR [8]): 10 µM | Chicken PXR Activity (chicken PXR [5]): No effect | Mouse PXR Activity (mouse PXR): No effect

CC(CCC(=O)NCC(=O)O)C1CCC2C3CCC4CC(O)CCC4(C)C3CC(O)C12C (stereo not drawn) [BI009, Glycodeoxycholic acid]
EC50 (rabbit PXR): 15.5 µM | Rabbit PXR efficacy, ε (rabbit PXR): 0.40
